Experimental data published in patent US20260167620A1, “MULTIFUNCTIONAL COMPOUND CAPABLE OF DEGRADING BTK KINASE, AND COMPOSITION AND USE” (HANGZHOU HEALZEN THERAPEUTICS CO., LTD., priority 2021, published 2026).

What was measured:
[1] = molecular target: T1, BTK (Homo sapiens, UniProt Q06187); experiment: BTK degradation activity test in Mino cells (Westernblot or Elisa); assay type: cell-based; conditions: 24-72 h incubation
T1 construct: endogenous in cells; host or cells: Mino cells
Procedure: The Mino cell line cells are 0.5˜1 million/well in 6-well plates. The compounds are diluted to different concentrations, added to the plate, and after 24-72 h of incubation, the cells are collected. After the cells were lysed, the total protein concentration in each well was determined with a BCA kit. The amount of BTK is determined using the Westernblot or Elisa method.

[2] = Mouse absorption test; assay type: in vivo; conditions: mice, intragastric 10 mg/kg, plasma
Procedure: (§1) Experimental method: mice were used as experimental animals, and drugs were administered intragastrically at 10 mg/kg (5% DMSO+5% Solutol+90% saline). The blood collection time points for intragastric administration were 0.25, 0.5, 1, 2, 4, 6, 8, and 24 h. 0.3 ml of whole blood was taken, and 0.1 ml of plasma was taken after centrifugation and analyzed by LC-MS.

[3] = Rat absorption test; assay type: in vivo; conditions: SD rats, intragastric 10 mg/kg, plasma
Procedure: as §1, with “SD Rats” for “Experimental method: mice”, “Solutol+90% normal” for “Solutol+90%”

[4] = test system: Mino cells; experiment: Inhibitory activity on Mino cell proliferation (MTS); assay type: cell-based; conditions: Homo sapiens, 72 h or 168 h
Procedure: (§2) The anti-tumor efficacy of the compounds was tested by measuring their inhibitory effects on OCI-LY10 and Mino cell proliferation. OCI-LY10 and Mino cells were cultured in RPM-1640 medium containing […] fetal calf serum. OCI-LY10 and Mino cells were digested, inoculated in a 96-well plate at a cell concentration of 10000 cells/well, and incubated overnight at 37° C., 5% CO2. Compounds of different concentrations (1000 nM, 4-fold dilution, 8 points) were added to the 96-well plate and incubated for 72 h or 168 h at 37° C. and […], and then 20 μL of MTS was added to each well. After incubation for 2 h, 25 μl of 10% SDS was added to each well to terminate the reaction. The absorbance at 490 nm and 650 nm were measured with a microplate reader. IC50 was calculated using GraphPad Prism 5.0.

[5] = Liver microsomal metabolic stability, human; assay type: in vitro ADME; conditions: human liver microsomes, NADPH, 37° C.
Procedure: (§3) Under the condition of ice bath, 1 mg of human or Mouse liver microparticles was add to PBS (1 mL) buffer, then NADPH (20 μL) was added, and incubated at 37° C. for 5 min. 10 μL of the compound to be tested was added, then suck several times with a pipette and divide into 3 aliquots of 330 μL; each and then samples were taken at 0, 15, 30, 60 and 120 min respectively. 10 μL of the solution was taken with a pipette each time and added to 490 μL of the solution containing the internal standard compound. The resulting solution was vortexed and then placed on ice, and then sampling at another time point continues. All samples were centrifuged at 10,000 rpm for 10 min, and the supernatant was taken for LC/MS testing. The metabolism of the compound in liver microsomes was calculated based on the peak area.

[6] = Liver microsomal metabolic stability, mouse; assay type: in vitro ADME; conditions: mouse liver microsomes, NADPH, 37° C.
Procedure: as §3

[7] = test system: OCI-LY10 cells; experiment: Inhibitory activity on OCI-LY10 cell proliferation (MTS); assay type: cell-based; conditions: Homo sapiens, 72 h or 168 h
Procedure: as §2

T1 sequence (Q06187 whole entry): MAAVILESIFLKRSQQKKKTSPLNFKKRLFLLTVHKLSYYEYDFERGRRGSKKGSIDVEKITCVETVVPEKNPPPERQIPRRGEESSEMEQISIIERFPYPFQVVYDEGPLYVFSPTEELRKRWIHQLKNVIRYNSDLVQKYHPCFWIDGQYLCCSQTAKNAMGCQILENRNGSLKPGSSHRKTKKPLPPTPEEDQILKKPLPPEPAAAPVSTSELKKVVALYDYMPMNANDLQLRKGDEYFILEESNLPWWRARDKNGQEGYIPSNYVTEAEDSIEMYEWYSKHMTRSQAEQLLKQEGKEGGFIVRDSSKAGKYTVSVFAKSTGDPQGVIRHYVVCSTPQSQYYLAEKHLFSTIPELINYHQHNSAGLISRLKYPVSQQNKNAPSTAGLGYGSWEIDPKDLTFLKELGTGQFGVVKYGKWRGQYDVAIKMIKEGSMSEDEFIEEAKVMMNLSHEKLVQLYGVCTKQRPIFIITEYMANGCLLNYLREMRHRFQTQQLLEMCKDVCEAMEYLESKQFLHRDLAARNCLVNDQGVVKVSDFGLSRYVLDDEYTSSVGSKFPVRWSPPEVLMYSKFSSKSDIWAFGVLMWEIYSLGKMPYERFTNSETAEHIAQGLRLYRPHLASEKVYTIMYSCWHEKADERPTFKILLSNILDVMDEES

Row | SMILES | DC50 [1] | DNAUC [2] | DNAUC [3] | IC50 [4] | Thalf (min) Human [5] | Thalf (min) Mouse [6] | IC50 [7]
1 | NC(=O)c1nnc(N2CCCCC2)nc1Nc1ccc(N2CCN(CC3CCN(c4ccc5c(c4)C(=O)N(C4CCC(=O)NC4=O)C5=O)C3)CC2)c(F)c1 (stereo not shown) [Compound 003, 5-((4-(4-((1-(2-(2,6-dioxopiperidin-3-yl)-1,3-dioxoisoindolin-5-yl)pyrrolidin-3-yl)methyl)piperazin-1-yl)-3-fluorophenyl)amino)-3-(piperidin-1-yl)-1,2,4-triazine-6-carboxamide] | < 10 nM | 1648 AUC (h*ng/mL)/dose (mg/kg) | 456 AUC (h*ng/mL)/dose (mg/kg) | – | – | – | –
2 | NC(=O)c1nnc(N2CCCCC2)nc1Nc1ccc(N2CCC(CN3CCN(c4cc5c(cc4F)C(=O)N(C4CCC(=O)NC4=O)C5=O)CC3)CC2)c(F)c1 (stereo not shown) [Compound 045, 5-((4-(4-((4-(2-(2,6-dioxopiperidin-3-yl)-6-fluoro-1,3-dioxoisoindolin-5-yl)piperazin-1-yl)methyl)piperidin-1-yl)-3-fluorophenyl)amino)-3-(piperidin-1-yl)-1,2,4-triazine-6-carboxamide] | < 10 nM | 1686 AUC (h*ng/mL)/dose (mg/kg) | 716 AUC (h*ng/mL)/dose (mg/kg) | 3.91 nM | 38 min | 120 min | –
3 | NC(=O)c1nnc(N2CCCCC2)nc1Nc1ccc(N2CCC(CN3CCN(c4ccc5c(c4)C(=O)N(C4CCC(=O)NC4=O)C5=O)CC3)CC2)c(F)c1 (stereo not shown) [Compound 044, 5-((4-(4-((4-(2-(2,6-dioxopiperidin-3-yl)-1,3-dioxoisoindolin-5-yl)piperazin-1-yl)methyl)piperidin-1-yl)-3-fluorophenyl)amino)-3-(piperidin-1-yl)-1,2,4-triazine-6-carboxamide] | < 10 nM | 1941 AUC (h*ng/mL)/dose (mg/kg) | – | 3.46 nM | – | – | –
4 | NC(=O)c1nnc(N2CCCCC2)nc1Nc1ccc(C2CCN(CC3CCN(c4ccc5c(c4)C(=O)N(C4CCC(=O)NC4=O)C5=O)C3)CC2)c(F)c1 (stereo not shown) [Compound 002, 5-((4-(1-((1-(2-(2,6-dioxopiperidin-3-yl)-1,3-dioxoisoindolin-5-yl)pyrrolidin-3-yl)methyl)piperidin-4-yl)-3-fluorophenyl)amino)-3-(piperidin-1-yl)-1,2,4-triazine-6-carboxamide] | < 10 nM | 2223 AUC (h*ng/mL)/dose (mg/kg) | 252 AUC (h*ng/mL)/dose (mg/kg) | – | 120 min | 54 min | –
5 | NC(=O)c1nnc(N2CCCCC2)nc1Nc1ccc(C2CCN(CC3CCN(c4ccc5c(c4)C(=O)N(C4CCC(=O)NC4=O)C5=O)C3)CC2)cc1 (stereo not shown) [Compound 001, 5-((4-(1-((1-(2-(2,6-dioxopiperidin-3-yl)-1,3-dioxoisoindolin-5-yl)pyrrolidin-3-yl)methyl)piperidin-4-yl)phenyl)amino)-3-(piperidin-1-yl)-1,2,4-triazine-6-carboxamide] | < 10 nM | 2300 AUC (h*ng/mL)/dose (mg/kg) | – | 5.5 nM | 71.37 min | 47.13 min | 3 nM
6 | NC(=O)c1nnc(N2CCCCC2)nc1Nc1ccc(N2CCC(CN3CCN(c4cc5c(cc4F)C(=O)N(C4CCC(=O)NC4=O)C5=O)CC3)CC2)cc1 (stereo not shown) [Compound 046, 5-((4-(4-((4-(2-(2,6-dioxopiperidin-3-yl)-6-fluoro-1,3-dioxoisoindolin-5-yl)piperazin-1-yl)methyl)piperidin-1-yl)phenyl)amino)-3-(piperidin-1-yl)-1,2,4-triazine-6-carboxamide] | < 10 nM | 1867 AUC (h*ng/mL)/dose (mg/kg) | – | – | – | – | –
7 | NC(=O)c1nnc(N2CCCCC2)nc1Nc1ccc(C2CCN(CC3CCN(c4ccc5c(c4)C(=O)N(C4CCC(=O)NC4=O)C5=O)CC3)CC2)c(F)c1 (stereo not shown) [Compound 007, 5-((4-(1-((1-(2-(2,6-dioxopiperidin-3-yl)-1,3-dioxoisoindolin-5-yl)piperidin-4-yl)methyl)piperidin-4-yl)-3-fluorophenyl)amino)-3-(piperidin-1-yl)-1,2,4-triazine-6-carboxamide] | < 10 nM | 1955 AUC (h*ng/mL)/dose (mg/kg) | – | 5.31 nM | – | – | –
